For experiment [1], the target named is T1, PIP4K2A (full length protein, SignalChem) (Homo sapiens, UniProt P48426).
T1 construct: 4 nM PIP4K2A (full length protein, SignalChem); purchased SignalChem
T1 sequence (P48426 1-406): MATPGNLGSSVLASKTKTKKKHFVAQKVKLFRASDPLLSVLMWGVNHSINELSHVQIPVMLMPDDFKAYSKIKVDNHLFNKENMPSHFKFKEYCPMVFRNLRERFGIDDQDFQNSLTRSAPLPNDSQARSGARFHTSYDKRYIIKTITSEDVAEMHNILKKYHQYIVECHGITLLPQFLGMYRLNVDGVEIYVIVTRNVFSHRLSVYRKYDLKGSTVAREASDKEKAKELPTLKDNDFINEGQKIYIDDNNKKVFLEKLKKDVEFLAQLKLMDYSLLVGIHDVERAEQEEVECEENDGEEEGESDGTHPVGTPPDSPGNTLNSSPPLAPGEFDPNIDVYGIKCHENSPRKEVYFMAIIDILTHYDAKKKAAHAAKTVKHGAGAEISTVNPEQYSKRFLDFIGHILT
In words: Kinase Assay PIP4K2 A (Sprint); ADP-Glo biochemical assay. The note with it: Table 2; compounds listed under IC50 range headings. In a few lines:
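Compounds (10-point, 3-fold dilutions) were pre-incubated 15 min at RT with an enzyme/substrate mix of 4 nM full-length PIP4K2A and 100 μM PI(5)P diC8 in 20 mM MOPS pH 7.2, 25 mM MgCl2, 0.005% Tween 20. A 60 μM ATP solution was added, reaction 1 h RT; ADP read by ADP-Glo luminescence, IC50 fitted from % inhibition vs DMSO.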

In a further experiment the target is T2, GST tagged PIP4KtypeIIB (Homo sapiens, UniProt P78356).
T2 construct: made in house; host or cells: E. coli
T2 sequence (P78356 1-416): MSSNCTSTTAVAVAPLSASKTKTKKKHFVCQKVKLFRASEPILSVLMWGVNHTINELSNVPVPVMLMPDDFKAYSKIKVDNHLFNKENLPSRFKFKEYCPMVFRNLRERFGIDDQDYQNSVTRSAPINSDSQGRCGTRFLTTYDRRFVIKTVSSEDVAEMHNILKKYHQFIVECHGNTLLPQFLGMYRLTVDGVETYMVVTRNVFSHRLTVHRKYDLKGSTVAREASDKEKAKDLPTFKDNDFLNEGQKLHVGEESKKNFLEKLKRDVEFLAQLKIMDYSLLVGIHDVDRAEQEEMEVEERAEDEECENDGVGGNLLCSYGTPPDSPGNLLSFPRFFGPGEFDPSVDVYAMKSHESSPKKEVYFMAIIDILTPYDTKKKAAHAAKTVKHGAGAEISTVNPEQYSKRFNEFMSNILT
The experiment in a line: Trans-FI P kinase assay PIP4K2B (PIP4KtypeIIB inhibition assay). Particulars: Table 4; compounds listed under IC50 range headings; 100 uM GTP, 5 nM PIP4KIIB; read-out: Trans-FI P kinase assays: PIP4K2B IC50. The experiment is classed as biochemical. An outline of the steps: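 Purified GST-PIP4KIIB (5 nM final), 1 h preincubation with compound at 27 C, then 2 h reaction with 100 uM GTP and 80 uM PI5P plus DOPE carrier lipid in pH 7.3 HEPES/MgCl2/Triton buffer with 5% DMSO. GDP read by Transcreener FI fluorescence against a calibration curve; IC50 from % no-inhibitor activity vs log concentration.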

Where only a bound is given, the exact number is not on record here.

On to `CCN(C)C(=O)c1ccc(-c2cncc(-c3ccnc4c3cc3n4CCN(C)C3=O)c2)cc1` [Example 324, N-ethyl-N-methyl-4-(5-(7-methyl-6-oxo-6,7,8,9-tetrahydropyrido[3′,2′:4,5]pyrrolo[1,2-a]pyrazin-4-yl)pyridin-3-yl)benzamide], for which the half-inhibitory concentration (IC50) (in general, the concentration needed to halve the response being measured) in experiment [1] fell in the range of 100 to 1000 nM; at GST tagged PIP4KtypeIIB it was 10 to 100 nM.
With `O=C1CCCN1c1ccc(-c2cncc(-c3cnc4ncc(-c5cncnc5)n4c3)c2)cc1` [Example 341, 1-(4-(5-(3-(pyrimidin-5-yl)imidazo[1,2-a]pyrimidin-6-yl)pyridin-3-yl)phenyl)pyrrolidin-2-one], the IC50 (in experiment [1]; on GST tagged PIP4KtypeIIB) was 1000 to 2500 nM each time.
With `CC(C)n1ccnc1-c1ccc(-c2cncc(-c3ccnc4c3cc3n4CCN(C)C3=O)c2)cc1` [Example 364, 4-(5-(4-(1-isopropyl-1H-imidazol-2-yl)phenyl)pyridin-3-yl)-7-methyl-8,9-dihydropyrido[3′,2′:4,5]pyrrolo[1,2-a]pyrazin-6(7H)-one], the IC50 was less than 5000 nM in experiment [1] and 1000 to 2500 nM at GST tagged PIP4KtypeIIB.
On the same counts, the results for `CC(C)c1cnoc1-c1ccc(-c2cncc(-c3ccnc4c3cc3n4CCN(C)C3=O)c2)cc1` [Example 363, 4-(5-(4-(4-isopropylisoxazol-5-yl)phenyl)pyridin-3-yl)-7-methyl-8,9-dihydropyrido[3′,2′:4,5]pyrrolo[1,2-a]pyrazin-6(7H)-one] are 100 to 1000 nM and 10 to 100 nM.
On to `O=C(Nc1cccnc1)c1cc2c(-c3cncc(-c4ccc(N5CCCC5=O)cc4)c3)ccnc2[nH]1` [Example 328, 4-(5-(4-(2-oxopyrrolidin-1-yl)phenyl)pyridin-3-yl)-N-(pyridin-3-yl)-1H-pyrrolo[2,3-b]pyridine-2-carboxamide], for which the IC50 is 2500 to 5000 nM in experiment [1] and 10 to 100 nM at GST tagged PIP4KtypeIIB.
On the same counts, the results for `CC(C)(O)c1cnc2[nH]c(C3CC3)c(-c3cncc(-c4ccc(N5CCCC5=O)cc4)c3)c2c1` [Example 338, 1-(4-(5-(2-cyclopropyl-5-(2-hydroxypropan-2-yl)-1H-pyrrolo[2,3-b]pyridin-3-yl)pyridin-3-yl)phenyl)pyrrolidin-2-one] are 100 to 1000 nM and 10 to 100 nM.
The matching figures for `CC(C)Cn1cnnc1-c1ccc(-c2cc(-c3ccnc4c3cc3n4CCN(CC4CC4)C3=O)cnc2N)cc1` [Example 391, 4-(6-amino-5-(4-(4-isobutyl-4H-1,2,4-triazol-3-yl)phenyl)pyridin-3-yl)-7-(cyclopropylmethyl)-8,9-dihydropyrido[3′,2′:4,5]pyrrolo[1,2-a]pyrazin-6(7H)-one]: 1000 to 2500 nM and 10 to 100 nM.
With `CC(=O)Nc1ncc(-c2cn(C)c3ncc(-c4cncc(-c5ccc(N6CCCC6=O)cc5)c4)cc23)cn1` [Example 350, N-(5-(1-methyl-5-(5-(4-(2-oxopyrrolidin-1-yl)phenyl)pyridin-3-yl)-1H-pyrrolo[2,3-b]pyridin-3-yl)pyrimidin-2-yl)acetamide], the IC50 in experiment [1] lay in the range of 5 to 100 nM; on GST tagged PIP4KtypeIIB, 100 to 1000 nM.
On the same counts, the results for `CN(C)C(=O)c1ccc(-c2cc(-c3cnc4c(c3)c(-c3cncnc3)cn4C)cnc2N)nc1` [Example 122, 2′-amino-N,N-dimethyl-5′-(1-methyl-3-(pyrimidin-5-yl)-1H-pyrrolo[2,3-b]pyridin-5-yl)-[2,3′-bipyridine]-5-carboxamide] are 100 to 1000 nM and 1000 to 2500 nM.
The matching figures for `Nc1ncc(-c2cnc3ncc(-c4cncc(-c5ccc(N6CCCC6=O)cc5)c4)cn23)cn1` [Example 334, 1-(4-(5-(3-(2-aminopyrimidin-5-yl)imidazo[1,2-a]pyrimidin-6-yl)pyridin-3-yl)phenyl)pyrrolidin-2-one]: 100 to 1000 nM and 100 to 1000 nM.
On the same counts, the results for `CC(C)n1cnnc1-c1ccc(-c2cncc(-c3ccnc4[nH]c(C(=O)NCCCCCCCCNC(=O)COc5cccc6c5C(=O)N(C5CCC(=O)NC5=O)C6=O)cc34)c2)cc1` (stereo not shown) [Example 388, N-(8-(2-((2-(2,6-dioxopiperidin-3-yl)-1,3-dioxoisoindolin-4-yl)oxy)acetamido)octyl)-4-(5-(4-(4-isopropyl-4H-1,2,4-triazol-3-yl)phenyl)pyridin-3-yl)-1H-pyrrolo[2,3-b]pyridine-2-carboxamide] are 100 to 1000 nM and 100 to 1000 nM.
Take `CN1CCn2c(cc3c(-c4cncc(-c5ccc(N6CC(C)(C)CCC6=O)cc5)c4)ccnc32)C1=O` [Example 326, 4-(5-(4-(5,5-dimethyl-2-oxopiperidin-1-yl)phenyl)pyridin-3-yl)-7-methyl-8,9-dihydropyrido[3′,2′:4,5]pyrrolo[1,2-a]pyrazin-6(7H)-one]: the IC50 in experiment [1] lay in the range of 1000 to 2500 nM; at GST tagged PIP4KtypeIIB it was 100 to 1000 nM.
On to `CNC(=O)c1cc2c(-c3cnc(N)c(-c4ccc(-c5nncn5CC(C)C)cc4)c3)ccnc2o1` [Example 366, 4-(6-amino-5-(4-(4-isobutyl-4H-1,2,4-triazol-3-yl)phenyl)pyridin-3-yl)-N-methylfuro[2,3-b]pyridine-2-carboxamide], for which the IC50 in experiment [1] is 5 to 100 nM; at GST tagged PIP4KtypeIIB, 10 to 100 nM.
On to `CC[C@@H](C)n1cnnc1-c1ccc(-c2cncc(-c3ccnc4c3cc3n4CCN(C)C3=O)c2)cc1` [Example 361, (R)-4-(5-(4-(4-(sec-butyl)-4H-1,2,4-triazol-3-yl)phenyl)pyridin-3-yl)-7-methyl-8,9-dihydropyrido[3′,2′:4,5]pyrrolo[1,2-a]pyrazin-6(7H)-one], for which the IC50 was in the range of 100 to 1000 nM in experiment [1] and 10 to 100 nM on GST tagged PIP4KtypeIIB.
On the same counts, the results for `Nc1ccc(-c2cnc3ncc(-c4cncc(-c5ccc(N6CCCC6=O)cc5)c4)cn23)cn1` [Example 337, 1-(4-(5-(3-(6-aminopyridin-3-yl)imidazo[1,2-a]pyrimidin-6-yl)pyridin-3-yl)phenyl)pyrrolidin-2-one] are 5 to 100 nM and 100 to 1000 nM.
The matching figures for `Cc1cccc2[nH]c(CNC(=O)c3cc4c(-c5cncc(-c6ccc(N7CCCC7=O)cc6)c5)ccnc4[nH]3)nc12` [Example 317, N-((4-methyl-1H-benzo[d]imidazol-2-yl)methyl)-4-(5-(4-(2-oxopyrrolidin-1-yl)phenyl)pyridin-3-yl)-1H-pyrrolo[2,3-b]pyridine-2-carboxamide]: less than 5000 nM and 10 to 100 nM.
On the same counts, the results for `C[C@@H]1C[C@@H](C(C)(C)O)N(C(=O)c2cc3c(-c4cncc(-c5ccc(N6CCCC6=O)cc5)c4)ccnc3[nH]2)C1` [Example 397] are 100 to 1000 nM and 100 to 1000 nM.
Turning to `Cc1c[nH]c2nccc(-c3cncc(-c4ccc(N5CCCC5=O)cc4)c3)c12` [Example 323, 1-(4-(5-(3-methyl-1H-pyrrolo[2,3-b]pyridin-4-yl)pyridin-3-yl)phenyl)pyrrolidin-2-one], the IC50 lay in the range of 1000 to 2500 nM in experiment [1] and 100 to 1000 nM on GST tagged PIP4KtypeIIB.
The matching figures for `Cn1c(CNC(=O)c2cc3c(-c4cncc(-c5ccc(N6CCCC6=O)cc5)c4)ccnc3[nH]2)nc2ccccc21` [Example 321, N-((1-methyl-1H-benzo[d]imidazol-2-yl)methyl)-4-(5-(4-(2-oxopyrrolidin-1-yl)phenyl)pyridin-3-yl)-1H-pyrrolo[2,3-b]pyridine-2-carboxamide]: less than 5000 nM and 100 to 1000 nM.
For `Cc1c[nH]c2nccc(-c3cc(-c4ccc(N5CCCC5=O)cc4)cnc3N)c12` [Example 316, 1-(4-(6-amino-5-(3-methyl-1H-pyrrolo[2,3-b]pyridin-4-yl)pyridin-3-yl)phenyl)pyrrolidin-2-one], the figures for the half-maximal inhibitory concentration (IC50) (in experiment [1]; on GST tagged PIP4KtypeIIB) were 1000 to 2500 nM and 10 to 100 nM, respectively.
